Laboratory results: patent US9505775B2, “Inhibitors of cytomegalovirus” (Boehringer Ingelheim International GmbH, priority 2012, dated 2016)

Biological target: T1, purified recombinant HCMV polymerase from strain AD169 (UL54) (Human cytomegalovirus, UniProt P08546)
T1 construct: made in house; host or cells: Sf21 insect cells (baculovirus)
Test: HCMV Polymerase LANCE TR-FRET Assay
Format: biochemical
Details: 2 nM GST-UL54, 37° C. for 30 min; read-out: IC50 (nM) Example B
Protocol: This non-radiometric assay determines the enzymatic activity of purified recombinant HCMV polymerase from strain AD169 (UL54) using a Digoxigenin-labeled oligonucleotide priming a heteropolymeric template. The enzymatic activity is determined by incorporating Biotin-dUTP in the nascent complementary strand. The signal is generated by Fluorescence Resonance Energy Transfer from the donor (Anti-Digoxigenin-Europium Chelate binding with the primer) to the acceptor Streptavidin-AlloPhycoCyanin (SA-APC) binding to the biotin of the labeled nucleotides incorporated in proximity.
Serial dilutions of the DMSO stock compound solution are performed using DMSO in columns 2-11 and 14-23. DMSO alone is present in columns 1, 12, 13 and 24. Three μL of the DMSO serial dilutions is transferred and diluted using 21 μL of compound dilution buffer (10 mM Hepes pH 7.5, 25 mM KCl, 5 mM MgCl2, 1 mM TCEP) to obtain 12.5% DMSO. 4 μL per well of the 12.5% DMSO serial dilution compound solution is added to the assay plate. The plate is centrifuged at 200×g for 30 sec.
The assay conditions are the following: 10 mM HEPES pH 7.5, 25 mM KCl, 7.5 mM NaCl, 5 mM MgCl2, 0.2 mg BSA/mL, 1 mM TCEP, 1.5% glycerol, 5% DMSO, 235 nM dATP, 350 nM dCTP, 350 nM dGTP, 235 nM dTTP, 12 nM biotin-16-dUTP, 23.5 nM Dig-primer/template, 2 nM GST-UL54. The assay volume is 10 μL. […] The primer and template are annealed in 10 mM Tris-HCl pH 7.5, 50 mM NaCl at a respective concentration of 50 μM. They are incubated at 95° C. for 5 min in a dry batch block. The block is removed from the dry bath and allowed to cool to RT. Aliquots are made and stored at −20° C.
To perform the assay, 3 μL of the enzyme solution is added to columns 2-12 and 14-24. The enzyme is substituted by the blank solution (b solution without enzyme) for columns 1 and 13 (blanks). The plate is centrifuged at 200×g for 30 sec. 3 μL of substrate solution is added to each well. The plate is centrifuged at 200×g for 30 sec. Plates are incubated at 37° C. for 30 min. 5 μL of conjugate solution is added (25 mM Hepes pH 7.5, 0.1 M NaCl, 0.25% Tween-20, 1 mg/mL BSA, 12 mM EDTA, 24 nM Sreptavidin-APC, 342 ng/mL Anti-Dig-Europium). The plates are incubated at RT for at least 120 min. The signal is read on the Envision plate reader (Perkin-Elmer) or equivalent.

T1 sequence (P08546 whole entry): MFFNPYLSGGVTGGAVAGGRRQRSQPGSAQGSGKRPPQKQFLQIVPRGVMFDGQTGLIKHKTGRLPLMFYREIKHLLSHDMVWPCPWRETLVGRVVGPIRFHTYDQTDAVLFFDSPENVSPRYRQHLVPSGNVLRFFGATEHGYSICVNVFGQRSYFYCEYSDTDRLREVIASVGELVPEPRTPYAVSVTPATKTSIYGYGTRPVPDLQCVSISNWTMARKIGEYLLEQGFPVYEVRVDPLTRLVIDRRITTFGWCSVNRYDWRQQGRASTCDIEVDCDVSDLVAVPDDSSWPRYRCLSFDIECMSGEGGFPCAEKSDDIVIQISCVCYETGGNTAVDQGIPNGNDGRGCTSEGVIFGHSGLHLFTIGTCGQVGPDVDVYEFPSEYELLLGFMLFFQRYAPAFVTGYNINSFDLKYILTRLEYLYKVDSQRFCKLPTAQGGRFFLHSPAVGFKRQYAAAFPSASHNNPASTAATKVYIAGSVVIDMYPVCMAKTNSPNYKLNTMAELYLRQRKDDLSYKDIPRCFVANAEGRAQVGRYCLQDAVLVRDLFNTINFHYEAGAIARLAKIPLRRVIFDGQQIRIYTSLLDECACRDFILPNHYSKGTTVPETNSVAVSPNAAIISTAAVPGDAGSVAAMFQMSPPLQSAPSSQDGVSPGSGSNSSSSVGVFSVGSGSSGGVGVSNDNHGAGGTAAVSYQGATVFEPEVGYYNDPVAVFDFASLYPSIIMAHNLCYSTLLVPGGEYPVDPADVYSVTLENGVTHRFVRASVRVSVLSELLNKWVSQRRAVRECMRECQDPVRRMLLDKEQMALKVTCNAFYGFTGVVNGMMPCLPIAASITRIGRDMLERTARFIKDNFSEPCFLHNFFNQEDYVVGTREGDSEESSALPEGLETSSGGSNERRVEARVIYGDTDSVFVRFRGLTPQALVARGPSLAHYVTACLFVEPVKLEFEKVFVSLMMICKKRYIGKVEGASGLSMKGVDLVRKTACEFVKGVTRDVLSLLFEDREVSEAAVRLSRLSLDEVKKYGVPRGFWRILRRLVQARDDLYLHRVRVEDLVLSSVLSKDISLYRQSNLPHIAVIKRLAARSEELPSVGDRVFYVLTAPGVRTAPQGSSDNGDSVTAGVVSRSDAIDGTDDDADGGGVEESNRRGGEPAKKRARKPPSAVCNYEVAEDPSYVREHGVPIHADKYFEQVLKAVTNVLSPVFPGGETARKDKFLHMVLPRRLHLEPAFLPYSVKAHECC

IC50 [nM] | Structure (SMILES)
130 | Cc1ccc(CCc2ccc3c(c2)C(C)(C)CN3C(=O)[C@H]2CC(=O)N(c3cccc(C#N)c3)C2)cn1 [11ss1]
200 | CC1(C)CN(C(=O)[C@H]2CC(=O)N(c3cccc(Cl)c3)C2)c2ccc(CCn3ccnc3)cc21 [11g1]
260 | CC1(C)CN(C(=O)[C@H]2CC(=O)N(c3cccc(C#N)c3)C2)c2ccc(Cc3cnoc3)cc21 [22a2]
350 | CC(c1ccc2c(c1)C(C)(C)CN2C(=O)[C@H]1CC(=O)N(c2cccc(C#N)c2)C1)n1ccnc1 (mixture of isomers) [11rr1]
240 | CNc1ncc(CCc2ccc3c(c2)C(C)(C)CN3C(=O)[C@H]2CC(=O)N(c3cccc(C#N)c3)C2)cn1 [17o1]
71 | CC1CN(C(=O)[C@H]2CC(=O)N(c3cccc(C#N)c3)C2)c2ccc(CCc3cncnc3)cc21 (single isomer, unassigned) [11dd1]
2100 | Cc1nccn1Cc1ccc2c(c1F)C(C)(C)CN2C(=O)[C@H]1CC(=O)N(c2cccc(C#N)c2)C1 [13g1]
1600 | Cn1cncc1CCc1ccc2c(c1)C(C)(CO)CN2C(=O)[C@H]1CC(=O)N(c2cccc(Cl)c2)C1 (single isomer, unassigned) [11oo1]
420 | Cn1cncc1CCc1ccc2c(c1)C(C)(C)CN2C(=O)[C@H]1CC(=O)N(c2cccc(C#N)c2)C1 [19c2]
790 | Cc1ncc(Cc2ccc3c(c2)C2(CC2)CN3C(=O)[C@H]2CC(=O)N(c3cccc(C#N)c3)C2)o1 [22v1]
230 | CC1(C)CN(C(=O)C2CC(=O)N(c3cccc(C#N)c3)C2)c2cc(Cl)c(Cn3cnnc3)cc21 (stereo not drawn) [13l1]
350 | Cc1noc(C)c1Cc1ccc2c(c1)C(C)(C)CN2C(=O)[C@H]1CC(=O)N(c2cccc(C#N)c2)C1 [22bb1]
86 | CC1(C)CN(C(=O)[C@H]2CC(=O)N(c3cccc(C#N)c3)C2)c2ccc(CNc3cncnc3)cc21 [31a1]
140 | Cc1nccn1Cc1cc2c(cc1F)N(C(=O)[C@H]1CC(=O)N(c3cccc(C#N)c3)C1)CC2(C)C [13f1]
550 | Cc1ncc(Cc2ccc3c(c2)C(C)(C)CN3C(=O)C2CC(=O)N(c3cccc(C#N)c3)C2)o1 (stereo not drawn) [22s1]
730 | N#Cc1cccc(N2C[C@@H](C(=O)N3CC4(CCOCC4)c4cc(Cn5ccnc5)ccc43)CC2=O)c1 [13t1]
99 | CC1(C)CN(C(=O)[C@H]2CC(=O)N(c3cccc(C#N)c3)C2)c2ccc(CCn3cncn3)cc21 [11zz1]
1600 | CC(=O)N1CCC2(CC1)CN(C(=O)[C@H]1CC(=O)N(c3cccc(C#N)c3)C1)c1ccc(Cn3ccnc3C)cc12 [13v1]
240 | CC1(C)CN(C(=O)[C@H]2CC(=O)N(c3cccc(C#N)c3)C2)c2ccc(CCn3ccnc3)cc21 [11e1]
87 | CC1(C)CN(C(=O)[C@H]2CC(=O)N(c3cccc(C#N)c3)C2)c2ccc(CCc3cccc(O)c3)cc21 [11ccc1]
94 | CC1(C)CN(C(=O)[C@H]2CC(=O)N(c3cccc(Cl)c3)C2)c2ccc(CCc3cncnc3)cc21 [11h1]
510 | Cn1cc(CCc2ccc3c(c2)C(C)(C)CN3C(=O)[C@H]2CC(=O)N(c3cccc(C#N)c3)C2)cn1 [11v1]
310 | CC1(C)CN(C(=O)[C@H]2CC(=O)N(c3cccc(C#N)c3)C2)c2ccc(CCc3ccccn3)cc21 [11bbb1]
480 | Cc1c(Cn2ccnc2C)ccc2c1C(C)(C)CN2C(=O)[C@H]1CC(=O)N(c2cccc(C#N)c2)C1 [11r1]
50 | Cc1nccn1Cc1cc2c(cc1Cl)N(C(=O)[C@H]1CC(=O)N(c3cccc(C#N)c3)C1)CC2(C)C [13x1]
990 | CC1(C)CN(C(=O)[C@H]2CC(=O)N(c3cccc(C#N)c3)C2)c2ccc(CCc3ccccc3)cc21 [19b2]
480 | Cn1cncc1Cc1ccc2c(c1)CCN2C(=O)[C@H]1CC(=O)N(c2cccc(C#N)c2)C1 [22j1]

IC50 [nM] | Structure (SMILES)
95 | CC1(C)CN(C(=O)[C@H]2CC(=O)N(c3cccc(C#N)c3)C2)c2ccc(CCc3cncnc3)cc21 [11f1]
470 | Cc1ncc(Cc2ccc3c(c2)C(C)(C)CN3C(=O)[C@H]2CC(=O)N(c3cccc(C#N)c3)C2)o1 [22w1]
590 | Cc1nccn1Cc1cc2c(cc1C(F)(F)F)N(C(=O)[C@H]1CC(=O)N(c3cccc(C#N)c3)C1)CC2(C)C [11s1]
150 | CC1CN(C(=O)[C@H]2CC(=O)N(c3cccc(Cl)c3)C2)c2ccc(CCc3cncnc3)cc21 (single isomer, unassigned) [11hh1]
49 | Cc1cc2c(cc1Cn1ccnc1C)C(C)(C)CN2C(=O)[C@H]1CC(=O)N(c2cccc(C#N)c2)C1 [11q1]
840 | CC1(C)CN(C(=O)C2CC(=O)N(c3cccc(C#N)c3)C2)c2ccc(COc3cncnc3)cc21 (stereo not drawn) [13w1]
540 | N#Cc1cccc(N2C[C@@H](C(=O)N3CCc4nc(CCn5ccnc5)ccc43)CC2=O)c1 [17n1]
360 | N#Cc1cccc(N2C[C@@H](C(=O)N3CC4(CC4)c4cc(Cn5ccnc5)ccc43)CC2=O)c1 [13r1]
750 | Cc1ncc(Cc2ccc3c(c2)C(C)(CO)CN3C(=O)[C@H]2CC(=O)N(c3cccc(Cl)c3)C2)o1 (single isomer, unassigned) [11qq1]
580 | CC(=O)N1CCC2(CC1)CN(C(=O)[C@H]1CC(=O)N(c3cccc(C#N)c3)C1)c1ccc(CN3CCOCC3)cc12 [11a1]
690 | CC1(C)CN(C(=O)[C@H]2CC(=O)N(c3cccc(C#N)c3)C2)c2ccc(Cn3ccnc3CC(=O)O)cc21 [24a1]
3200 | Cc1nccn1Cc1ccc2c(c1)C(C)CN2C(=O)[C@H]1CC(=O)N(c2cccc(C#N)c2)C1 (single isomer, unassigned) [13o1]
550 | CC1(C)CN(C(=O)[C@H]2CC(=O)N(c3cccc(C#N)c3)C2)c2ccc(Cn3cncc3C(=O)O)cc21 [24d1]
38 | CC1(C)CN(C(=O)[C@H]2CC(=O)N(c3cccc(C#N)c3)C2)c2ccc(CCc3cncc(N)c3)cc21 [11ddd1]
570 | N#Cc1cccc(N2C[C@@H](C(=O)N3CC4(CC4)c4cc(Cc5cncnc5)ccc43)CC2=O)c1 [22u1]
110 | CC1(C)CN(C(=O)[C@H]2CC(=O)N(c3cccc(Cl)c3)C2)c2ccc(Cn3ccnc3)cc21 [13d1]
330 | CC1(C)CN(C(=O)[C@H]2CC(=O)N(c3cccc(C#N)c3)C2)c2cc(Cl)c(CCn3ccnc3)cc21 [17b1]
150 | N#Cc1cccc(N2C[C@@H](C(=O)N3CCc4cc(Cn5ccnc5)ccc43)CC2=O)c1 [13a1]
370 | CC1(C)CN(C(=O)[C@H]2CC(=O)N(c3cccc(C#N)c3)C2)c2ccc(CCc3cncc(C#N)c3)cc21 [11t1]
290 | Cc1oncc1Cc1ccc2c(c1)CCN2C(=O)[C@H]1CC(=O)N(c2cccc(C#N)c2)C1 [22dd1]
160 | CC1(C)CN(C(=O)[C@H]2CC(=O)N(c3cccc(C#N)c3)C2)c2ccc(Cn3cnnc3)cc21 [11vv1]
2900 | CC1(C)CN(C(=O)[C@H]2CC(=O)N(c3cccc(C#N)c3)C2)c2ccc(Cc3ccncc3)cc21 [22o1]
600 | CC(C)n1cnnc1CN(C)Cc1ccc2c(c1)CCN2C(=O)C1CC(=O)N(c2cccc(C#N)c2)C1 (stereo not drawn) [16c3]
1300 | CC(=O)N1CCC2(CC1)CN(C(=O)[C@H]1CC(=O)N(c3cccc(C#N)c3)C1)c1ccc(Cc3cncnc3)cc12 [22z1]
63 | CC1CN(C(=O)[C@H]2CC(=O)N(c3cccc(Cl)c3)C2)c2ccc(CCn3ccnc3)cc21 (single isomer, unassigned) [11ee1]
380 | CC1(C)CN(C(=O)[C@H]2CC(=O)N(c3cccc(C#N)c3)C2)c2ccc(Cc3cncnc3)cc21 [22l1.2]
100 | CC1CN(C(=O)[C@H]2CC(=O)N(c3cccc(C#N)c3)C2)c2ccc(CCn3ccnc3)cc21 (single isomer, unassigned) [11aa1]
